Results as given in ChEMBL document CHEMBL1145498, “A systematic interaction map of validated kinase inhibitors with Ser/Thr kinases” (Proc Natl Acad Sci U S A, 2007).

Tests used:
[1] = biological target: T1, Serine/threonine-protein kinase 17A (Homo sapiens) (UniProt Q9UEE5)
T1 sequence (whole entry): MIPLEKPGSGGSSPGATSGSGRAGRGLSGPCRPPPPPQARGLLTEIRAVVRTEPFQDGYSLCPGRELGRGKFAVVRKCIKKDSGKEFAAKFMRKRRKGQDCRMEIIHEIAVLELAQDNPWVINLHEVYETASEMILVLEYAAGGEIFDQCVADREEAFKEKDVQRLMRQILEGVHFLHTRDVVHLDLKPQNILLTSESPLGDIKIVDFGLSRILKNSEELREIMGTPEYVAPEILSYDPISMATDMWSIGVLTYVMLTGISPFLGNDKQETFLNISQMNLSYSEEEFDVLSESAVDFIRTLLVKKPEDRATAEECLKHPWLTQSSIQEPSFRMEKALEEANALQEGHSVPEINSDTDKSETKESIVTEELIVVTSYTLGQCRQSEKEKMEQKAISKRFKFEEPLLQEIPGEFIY

[2] = biological target: T2, Dual specificity mitogen-activated protein kinase kinase 6 (Homo sapiens) (UniProt P52564)
T2 sequence (whole entry): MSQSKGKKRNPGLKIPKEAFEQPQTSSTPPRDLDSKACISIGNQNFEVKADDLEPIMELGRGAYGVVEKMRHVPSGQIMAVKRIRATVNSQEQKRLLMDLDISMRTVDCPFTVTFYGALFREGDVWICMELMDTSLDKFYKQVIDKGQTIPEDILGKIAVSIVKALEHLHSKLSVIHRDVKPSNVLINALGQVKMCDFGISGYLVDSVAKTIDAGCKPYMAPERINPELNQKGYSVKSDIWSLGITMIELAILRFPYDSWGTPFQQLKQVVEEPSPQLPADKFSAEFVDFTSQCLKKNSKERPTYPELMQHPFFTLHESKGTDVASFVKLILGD

[3] = biological target: T3, Calcium/calmodulin-dependent protein kinase type IV (Homo sapiens) (UniProt Q16566)
T3 sequence (whole entry): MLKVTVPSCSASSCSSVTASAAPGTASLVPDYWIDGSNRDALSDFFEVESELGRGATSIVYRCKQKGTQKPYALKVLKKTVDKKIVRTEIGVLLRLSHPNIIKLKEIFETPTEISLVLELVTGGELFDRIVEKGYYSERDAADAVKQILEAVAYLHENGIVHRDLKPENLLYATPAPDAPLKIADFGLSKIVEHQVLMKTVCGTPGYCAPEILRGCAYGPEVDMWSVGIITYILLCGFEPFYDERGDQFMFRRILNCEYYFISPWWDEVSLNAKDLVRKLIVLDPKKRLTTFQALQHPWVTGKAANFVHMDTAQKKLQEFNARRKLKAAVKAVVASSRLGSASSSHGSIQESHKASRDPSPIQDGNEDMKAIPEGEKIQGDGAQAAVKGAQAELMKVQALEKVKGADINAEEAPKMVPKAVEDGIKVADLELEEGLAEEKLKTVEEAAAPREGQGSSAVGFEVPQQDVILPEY

[4] = biological target: 5'-AMP-activated protein kinase catalytic subunit alpha-2 (Homo sapiens) (UniProt P54646)
Chain of 5'-AMP-activated protein kinase catalytic subunit alpha-2 (Homo sapiens) (P54646 whole entry, looked up): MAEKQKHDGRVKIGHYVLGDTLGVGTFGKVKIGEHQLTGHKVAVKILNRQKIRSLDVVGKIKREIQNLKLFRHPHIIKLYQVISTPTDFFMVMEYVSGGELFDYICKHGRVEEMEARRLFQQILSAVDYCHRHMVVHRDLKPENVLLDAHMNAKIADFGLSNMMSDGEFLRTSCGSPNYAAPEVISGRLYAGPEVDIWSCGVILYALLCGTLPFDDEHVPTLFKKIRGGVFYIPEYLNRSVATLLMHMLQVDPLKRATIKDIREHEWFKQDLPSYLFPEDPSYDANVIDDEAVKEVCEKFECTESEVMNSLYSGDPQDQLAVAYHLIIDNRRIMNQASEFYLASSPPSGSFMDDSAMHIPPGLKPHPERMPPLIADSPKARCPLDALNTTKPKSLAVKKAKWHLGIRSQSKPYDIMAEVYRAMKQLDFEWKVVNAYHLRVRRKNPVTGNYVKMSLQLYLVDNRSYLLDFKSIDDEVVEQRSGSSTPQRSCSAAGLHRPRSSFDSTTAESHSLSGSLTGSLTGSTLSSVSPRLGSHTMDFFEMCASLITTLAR

[5] = biological target: Serine/threonine-protein kinase VRK2 (Homo sapiens) (UniProt Q86Y07)
[6] = biological target: Serine/threonine-protein kinase PAK 4 (Homo sapiens) (UniProt O96013)
Chain of Serine/threonine-protein kinase PAK 4 (Homo sapiens) (O96013 whole entry, looked up): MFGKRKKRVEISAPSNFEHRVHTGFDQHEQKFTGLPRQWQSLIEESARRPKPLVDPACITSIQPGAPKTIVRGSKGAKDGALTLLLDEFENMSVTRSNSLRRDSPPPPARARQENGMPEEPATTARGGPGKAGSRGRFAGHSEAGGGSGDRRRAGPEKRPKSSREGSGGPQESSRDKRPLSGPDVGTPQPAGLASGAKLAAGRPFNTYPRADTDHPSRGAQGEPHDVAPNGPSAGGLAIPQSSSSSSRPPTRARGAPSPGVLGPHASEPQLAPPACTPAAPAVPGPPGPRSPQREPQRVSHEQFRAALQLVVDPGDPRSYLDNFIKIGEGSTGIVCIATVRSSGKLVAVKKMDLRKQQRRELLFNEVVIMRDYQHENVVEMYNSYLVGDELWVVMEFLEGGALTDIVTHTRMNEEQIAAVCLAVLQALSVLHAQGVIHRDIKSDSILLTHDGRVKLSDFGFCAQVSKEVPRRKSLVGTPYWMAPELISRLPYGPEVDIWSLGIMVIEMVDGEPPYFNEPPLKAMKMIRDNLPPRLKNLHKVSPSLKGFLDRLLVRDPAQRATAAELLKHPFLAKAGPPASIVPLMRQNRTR

[7] = biological target: Serine/threonine-protein kinase 38 (Homo sapiens) (UniProt Q15208)
Chain of Serine/threonine-protein kinase 38 (Homo sapiens) (Q15208 2-465 limits assumed): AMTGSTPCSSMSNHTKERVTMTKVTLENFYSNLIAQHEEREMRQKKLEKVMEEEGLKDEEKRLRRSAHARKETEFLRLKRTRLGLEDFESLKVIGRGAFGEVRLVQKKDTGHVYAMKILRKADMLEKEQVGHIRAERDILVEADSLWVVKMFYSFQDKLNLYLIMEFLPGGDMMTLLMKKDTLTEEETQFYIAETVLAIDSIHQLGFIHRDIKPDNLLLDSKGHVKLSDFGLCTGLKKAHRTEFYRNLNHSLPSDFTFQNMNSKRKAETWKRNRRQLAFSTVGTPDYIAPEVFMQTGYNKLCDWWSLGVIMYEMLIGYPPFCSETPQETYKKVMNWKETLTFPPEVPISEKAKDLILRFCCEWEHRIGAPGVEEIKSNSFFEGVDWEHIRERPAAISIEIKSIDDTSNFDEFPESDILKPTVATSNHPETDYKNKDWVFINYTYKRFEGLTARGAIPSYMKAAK

[8] = biological target: Cyclin-dependent kinase 16 (Homo sapiens) (UniProt Q00536)
Chain of Cyclin-dependent kinase 16 (Homo sapiens) (Q00536 whole entry): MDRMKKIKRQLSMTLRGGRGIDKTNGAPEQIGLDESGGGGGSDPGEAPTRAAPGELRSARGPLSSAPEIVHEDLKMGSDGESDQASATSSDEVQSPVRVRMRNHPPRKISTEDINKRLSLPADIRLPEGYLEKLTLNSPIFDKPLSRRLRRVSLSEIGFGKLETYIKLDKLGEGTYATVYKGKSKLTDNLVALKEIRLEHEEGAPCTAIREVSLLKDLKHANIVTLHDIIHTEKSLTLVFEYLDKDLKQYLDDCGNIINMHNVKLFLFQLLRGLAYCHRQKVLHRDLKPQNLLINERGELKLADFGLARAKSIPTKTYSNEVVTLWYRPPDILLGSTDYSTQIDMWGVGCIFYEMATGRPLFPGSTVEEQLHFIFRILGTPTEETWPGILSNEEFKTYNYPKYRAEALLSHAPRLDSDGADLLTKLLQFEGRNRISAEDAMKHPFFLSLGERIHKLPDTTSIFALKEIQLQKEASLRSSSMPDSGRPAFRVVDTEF

[9] = biological target: Serine/threonine-protein kinase PAK 5 (Homo sapiens) (UniProt Q9P286)
Chain of Serine/threonine-protein kinase PAK 5 (Homo sapiens) (Q9P286 whole entry, looked up): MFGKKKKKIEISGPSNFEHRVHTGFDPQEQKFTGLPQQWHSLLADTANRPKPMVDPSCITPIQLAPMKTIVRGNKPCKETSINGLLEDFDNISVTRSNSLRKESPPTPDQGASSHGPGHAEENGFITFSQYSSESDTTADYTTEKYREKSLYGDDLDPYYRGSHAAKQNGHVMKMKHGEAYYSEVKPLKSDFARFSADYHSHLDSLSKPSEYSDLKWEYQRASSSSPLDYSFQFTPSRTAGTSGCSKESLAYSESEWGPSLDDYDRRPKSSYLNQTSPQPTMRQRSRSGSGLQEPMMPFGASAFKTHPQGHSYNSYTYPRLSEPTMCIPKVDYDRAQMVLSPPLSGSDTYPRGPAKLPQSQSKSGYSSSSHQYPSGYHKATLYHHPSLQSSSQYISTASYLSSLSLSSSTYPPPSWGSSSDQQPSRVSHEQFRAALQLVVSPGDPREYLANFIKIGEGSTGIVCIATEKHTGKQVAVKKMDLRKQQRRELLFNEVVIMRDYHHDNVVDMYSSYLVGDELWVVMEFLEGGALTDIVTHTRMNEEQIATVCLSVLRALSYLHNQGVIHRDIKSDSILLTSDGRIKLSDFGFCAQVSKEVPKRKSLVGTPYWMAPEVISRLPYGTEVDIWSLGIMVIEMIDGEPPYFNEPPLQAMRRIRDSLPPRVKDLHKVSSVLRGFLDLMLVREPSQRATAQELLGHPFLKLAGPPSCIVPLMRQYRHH

[10] = biological target: T4, 3-phosphoinositide-dependent protein kinase 1 (Homo sapiens) (UniProt O15530)
T4 sequence (whole entry): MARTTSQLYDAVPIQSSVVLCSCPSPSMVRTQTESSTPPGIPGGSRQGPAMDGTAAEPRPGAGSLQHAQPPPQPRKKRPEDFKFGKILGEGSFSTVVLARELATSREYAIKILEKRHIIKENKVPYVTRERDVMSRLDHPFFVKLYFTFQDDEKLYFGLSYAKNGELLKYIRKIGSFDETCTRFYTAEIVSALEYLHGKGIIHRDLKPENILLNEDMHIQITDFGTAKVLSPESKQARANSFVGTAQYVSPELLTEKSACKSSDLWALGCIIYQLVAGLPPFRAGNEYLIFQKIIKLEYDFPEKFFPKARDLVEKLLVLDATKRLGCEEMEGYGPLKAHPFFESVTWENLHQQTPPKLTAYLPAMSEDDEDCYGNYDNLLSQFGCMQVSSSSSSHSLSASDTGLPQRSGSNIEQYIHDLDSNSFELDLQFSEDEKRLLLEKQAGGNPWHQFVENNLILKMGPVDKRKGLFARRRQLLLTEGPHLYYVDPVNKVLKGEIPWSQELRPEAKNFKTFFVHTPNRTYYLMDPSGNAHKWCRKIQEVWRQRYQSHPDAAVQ

[11] = biological target: Casein kinase I isoform gamma-3 (Homo sapiens) (UniProt Q9Y6M4)
Chain of Casein kinase I isoform gamma-3 (Homo sapiens) (Q9Y6M4 whole entry, looked up, canonical isoform): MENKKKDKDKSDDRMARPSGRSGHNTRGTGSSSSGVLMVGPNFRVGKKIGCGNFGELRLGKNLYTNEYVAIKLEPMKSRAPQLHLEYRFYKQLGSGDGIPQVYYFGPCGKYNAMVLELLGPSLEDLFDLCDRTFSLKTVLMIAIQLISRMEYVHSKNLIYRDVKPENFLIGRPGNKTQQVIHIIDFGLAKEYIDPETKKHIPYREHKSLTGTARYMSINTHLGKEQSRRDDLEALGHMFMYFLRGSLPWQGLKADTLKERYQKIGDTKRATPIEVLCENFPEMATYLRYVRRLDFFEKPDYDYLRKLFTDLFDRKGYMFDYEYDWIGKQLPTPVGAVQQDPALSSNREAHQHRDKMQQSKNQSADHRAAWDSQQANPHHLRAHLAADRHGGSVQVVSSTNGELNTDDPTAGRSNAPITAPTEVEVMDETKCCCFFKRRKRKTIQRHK

[12] = biological target: Ribosomal protein S6 kinase alpha-3 (Homo sapiens) (UniProt P51812)
[13] = biological target: Serine/threonine-protein kinase RIO2 (Homo sapiens) (UniProt Q9BVS4)
Chain of Serine/threonine-protein kinase RIO2 (Homo sapiens) (Q9BVS4 whole entry, looked up): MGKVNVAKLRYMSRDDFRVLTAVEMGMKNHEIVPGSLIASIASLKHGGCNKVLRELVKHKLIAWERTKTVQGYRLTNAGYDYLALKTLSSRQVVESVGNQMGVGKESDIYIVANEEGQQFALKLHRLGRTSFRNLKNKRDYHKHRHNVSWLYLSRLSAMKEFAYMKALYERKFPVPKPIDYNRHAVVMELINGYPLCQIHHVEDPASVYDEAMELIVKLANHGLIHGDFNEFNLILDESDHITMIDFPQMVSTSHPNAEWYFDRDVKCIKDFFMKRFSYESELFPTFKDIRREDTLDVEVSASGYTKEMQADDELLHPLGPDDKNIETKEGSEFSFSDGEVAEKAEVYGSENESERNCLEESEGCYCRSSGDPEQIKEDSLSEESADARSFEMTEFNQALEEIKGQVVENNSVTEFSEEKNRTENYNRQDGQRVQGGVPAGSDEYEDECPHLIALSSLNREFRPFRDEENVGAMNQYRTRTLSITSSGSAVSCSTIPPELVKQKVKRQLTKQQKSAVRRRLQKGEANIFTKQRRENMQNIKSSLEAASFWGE

[14] = biological target: Mitogen-activated protein kinase 6 (Homo sapiens) (UniProt Q16659)
[15] = biological target: Serine/threonine-protein kinase 16 (Homo sapiens) (UniProt O75716)
Chain of Serine/threonine-protein kinase 16 (Homo sapiens) (O75716 whole entry): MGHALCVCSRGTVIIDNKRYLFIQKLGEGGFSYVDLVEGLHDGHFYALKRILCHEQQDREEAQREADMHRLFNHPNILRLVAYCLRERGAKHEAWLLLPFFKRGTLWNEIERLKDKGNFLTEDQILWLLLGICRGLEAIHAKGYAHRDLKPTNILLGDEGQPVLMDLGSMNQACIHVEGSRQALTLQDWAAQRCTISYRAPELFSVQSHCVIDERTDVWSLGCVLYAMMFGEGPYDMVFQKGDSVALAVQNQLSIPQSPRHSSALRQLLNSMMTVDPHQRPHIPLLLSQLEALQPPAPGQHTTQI

[16] = biological target: Calcium/calmodulin-dependent protein kinase type II subunit beta (Homo sapiens) (UniProt Q13554)
Chain of Calcium/calmodulin-dependent protein kinase type II subunit beta (Homo sapiens) (Q13554 whole entry): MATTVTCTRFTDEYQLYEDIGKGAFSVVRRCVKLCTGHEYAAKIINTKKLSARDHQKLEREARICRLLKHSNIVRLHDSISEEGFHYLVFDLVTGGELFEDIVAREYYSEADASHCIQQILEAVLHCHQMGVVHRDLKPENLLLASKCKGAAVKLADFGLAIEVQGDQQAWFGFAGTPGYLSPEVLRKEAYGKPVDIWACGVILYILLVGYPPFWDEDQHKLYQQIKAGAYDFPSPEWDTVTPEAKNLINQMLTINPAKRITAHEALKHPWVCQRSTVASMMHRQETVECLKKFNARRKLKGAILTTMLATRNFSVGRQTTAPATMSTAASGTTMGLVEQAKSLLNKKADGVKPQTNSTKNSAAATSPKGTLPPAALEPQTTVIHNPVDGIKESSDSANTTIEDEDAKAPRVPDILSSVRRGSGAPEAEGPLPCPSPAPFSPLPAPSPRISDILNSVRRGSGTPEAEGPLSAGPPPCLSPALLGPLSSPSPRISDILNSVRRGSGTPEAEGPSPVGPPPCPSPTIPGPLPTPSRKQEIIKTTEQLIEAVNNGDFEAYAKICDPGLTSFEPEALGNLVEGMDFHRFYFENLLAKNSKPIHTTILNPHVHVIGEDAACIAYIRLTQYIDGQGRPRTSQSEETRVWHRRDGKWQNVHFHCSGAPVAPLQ

SMILES	ΔTm [1] [°C]	ΔTm [2] [°C]	ΔTm [3] [°C]	ΔTm [4] [°C]	ΔTm [5] [°C]	ΔTm [6] [°C]	ΔTm [7] [°C]	ΔTm [8] [°C]	ΔTm [9] [°C]	ΔTm [10] [°C]	ΔTm [11] [°C]	ΔTm [12] [°C]	ΔTm [13] [°C]	ΔTm [14] [°C]	ΔTm [15] [°C]	ΔTm [16] [°C]
Cc1cc(Nc2nc(-c3ccccc3)nc3ccccc23)n[nH]1	2.2	2.3	4.7	5.8	0.4	5.9	4	1.4	5.2	-0.4	2.8	0.8	5.3	0.2	5.6	0.6
CN(C)S(=O)(=O)c1ccc2c(c1)/C(=C/c1cc3c([nH]1)CCCC3)C(=O)N2	3.3	0.3	2.6	6.7	0.4	1.3	2.2	0.1	0.4	0.4	0.6	7.5	-6.4	0.6	0.3	2.3
O=c1c(O)c(-c2ccc(O)c(O)c2)oc2cc(O)cc(O)c12 [QUERCETIN]	9.3	3.6	6.7	2.3	2.7	2.3	3.2	1.8	0.5	1.1	2.9	5.6	4.2	0.8	4.8	2.9
NC(=O)c1ccc2[nH]c(-c3ccc(Oc4ccc(Cl)cc4)cc3)nc2c1	0.7	0.4	-0.4	-0.9	0.5	1.3	1.7	-1.4	-0.2	-0.5	1.3	0.7	2.4	0.5	4.7	0.5
CCOC(=O)c1c(C)[nH]c(/C=C2\C(=O)Nc3ccccc32)c1C	4.5	0	-0.4	0.5	0.2	0.9	-0.1	-0.2	-0.5	0.2	0.3	3	-8.9	-0.1	0.6	0.7
N#CC(C#N)=Cc1ccc(O)c(O)c1 [TYRPHOSTIN 23]	0.9	0.2	0.4	-0.1	0.2	-0.1	0.2	-0.7	0.5	0.2	0.3	0.2	1.5	0.1	0.4	0.1
CN(C)CCCn1cc(C2=C(c3c[nH]c4ccccc34)C(=O)NC2=O)c2ccccc21 [GF-109203]	1.3	1.1	1.1	2.6	0.9	2.5	0.3	3	1	-0.2	0.3	7.8	0.3	-0.2	2.1	0.9
Nc1n[nH]c2nc3ccccc3nc12 [QUINOXALINE1]	3.5	0.3	0.3	-0.1	0.7	-0.3	0.4	-0.1	0.2	0.5	0.4	0.4	0.4	0.4	1.1	0.3
COc1cc(OC)c(/C=C2\C(=O)Nc3ccccc32)c(OC)c1	-0.3	0	-0.1	-0.1	2.2	0.1	0.2	-0.7	-0.3	-0.1	0.5	-0.2	-0.2	-0.2	0.2	0.1
C/C(O)=C(\C#N)C(=O)Nc1cc(Br)ccc1Br	0.6	0.2	0.1	0.6	0.1	-0.3	-0.1	-1.1	0.4	-3.7	0.3	0.6	1.5	0.4	0.4	0
O=C1Nc2ccc(S(=O)(=O)O)cc2/C1=C1/Nc2ccccc2/C1=N\O	9.8	3.5	1.3	5.5	4	2.7	1.9	5.9	2.1	0.7	3.7	5.6	1.2	1.1	4.9	1.8
Cl.Cn1cc(C2=C(c3ccc4cc5n(c4c3)CCC(CN)C5)C(=O)NC2=O)c2ccccc21 (stereo not drawn)	3.5	1.1	0.1	-0.4	0.4	1.6	0.4	2.9	0.1	0	0.6	6	-0.2	0.7	1.2	1.2
CCOc1ccc(/C=C2/SC(=O)N(CCN)C2=O)cc1 [HIAZOLIDINEDIONE1]	-0.6	0.1	0.4	0.1	0.1	0.6	0.5	0.2	0.1	-0.3	-0.1	0	-0.2	0.6	-0.1	-0.5
